From patent publication US11076595B2, “1-(n,n-disubstituted carbamoyl) 4-(substituted sulfonyl)triazolin-5-one derivative, 4-(n,n-disubstituted carbamoyl) 1-(substituted sulfonyl)triazolin-5-one derivative, and herbicide containing said derivative as active ingredient” (HOKKO CHEMICAL INDUSTRY CO., LTD., priority 2017, dated 2021)

Legend:
Format in all cases: in vivo
Echinochloa crus-galli [1] = assay: Test Example 12: herbicidal effect test by treatment during growing period in paddy field; conditions: 120 g/10a; treatment seven days after sowing in flooded paddy pot; assessed 14 days after treatment
Procedure: (§1) This test was performed with two replications per one formulation concentration plot, and 14 days after the formulation treatments, the weed suppression rate (%) was determined according to the following equation (Math. 2). Weed suppression rate (%)=(1−average dry weight (g) of plants in treated plots/average dry weight (g) of plants in untreated plots)×100 [Math. 2]
(§2) A Wagner pot having an area of 1/10000 are was filled with paddy field soil and after adding water, a chemical fertilizer (N:P:K=17:17:17) was mixed, followed by puddling. Thereafter, 30 grains of each of Echinochloa crus-galli, broad-leaved weed (Lindernia pyxidaria, Monochoria vaginalis) and Scirpus juncoides seeds were sown to a depth of 0 to 1 cm. Immediately after the sowing, the pot was flooded, and the depth of water was kept at about 3 cm. The pot was subsequently managed in a glass greenhouse. Seven Days after sowing, an emulsifiable concentrate prepared according to Formulation Example 15 by using the compound shown in Table 10 below was diluted with water, and a predetermined amount of the water-diluted formulation was added dropwise. The application rate of the active ingredient, by conversion, corresponded to 120 g per 10 are. The test was performed with two replications per one formulation concentration plot, and 14 days after the formulation treatments, the weed suppression rate (%) was determined according to the equation (Math. 2).

Lindernia pyxidaria [2] = assay: as above; conditions: 120 g/10a; treatment seven days after sowing in flooded paddy pot; assessed 14 days after treatment
Procedure: as §1, §2

Scirpus juncoides [3] = assay: as above; conditions: 120 g/10a; treatment seven days after sowing in flooded paddy pot; assessed 14 days after treatment
Procedure: as §1, §2

Monochoria vaginalis [4] = assay: as above; conditions: 120 g/10a; treatment seven days after sowing in flooded paddy pot; assessed 14 days after treatment
Procedure: as §1, §2

Echinochloa crus-galli [5] = assay: Test Example 11: herbicidal effect test by soil treatment in paddy field; conditions: 120 g/10a active ingredient, 14 days after treatment
Excerpt: as §2, with “greenhouse. Just” for “greenhouse. Seven Days”, “after that,” for “after sowing,”, “Table 9” for “Table 10”, “are.” for “are. The test was performed with two replications per one formulation concentration plot, and 14 days after the formulation treatments, the weed suppression rate (%) was determined according to the equation (Math. 2).”
as §1

Lindernia pyxidaria [6] = assay: as above; conditions: 120 g/10a active ingredient, 14 days after treatment
Excerpt: as §2, with “greenhouse. Just” for “greenhouse. Seven Days”, “after that,” for “after sowing,”, “Table 9” for “Table 10”, “are.” for “are. The test was performed with two replications per one formulation concentration plot, and 14 days after the formulation treatments, the weed suppression rate (%) was determined according to the equation (Math. 2).”
as §1

Scirpus juncoides [7] = assay: as above; conditions: 120 g/10a active ingredient, 14 days after treatment
Excerpt: as §2, with “greenhouse. Just” for “greenhouse. Seven Days”, “after that,” for “after sowing,”, “Table 9” for “Table 10”, “are.” for “are. The test was performed with two replications per one formulation concentration plot, and 14 days after the formulation treatments, the weed suppression rate (%) was determined according to the equation (Math. 2).”
as §1

Monochoria vaginalis [8] = assay: as above; conditions: 120 g/10a active ingredient, 14 days after treatment
Excerpt: as §2, with “greenhouse. Just” for “greenhouse. Seven Days”, “after that,” for “after sowing,”, “Table 9” for “Table 10”, “are.” for “are. The test was performed with two replications per one formulation concentration plot, and 14 days after the formulation treatments, the weed suppression rate (%) was determined according to the equation (Math. 2).”
as §1

SMILES	Weed suppression rate (%) Echinochloa crus-galli (Echinochloa crus-galli [1]) [%]	Weed suppression rate (%) Lindemia pyxidaria (Lindernia pyxidaria [2]) [%]	Weed suppression rate (%) Scirpus juncoides (Scirpus juncoides [3]) [%]	Weed suppression rate (%) Monochoria vaginalis (Monochoria vaginalis [4]) [%]	Weed suppression rate (%) Echinochloa crus-galli (Echinochloa crus-galli [5]) [%]	Weed suppression rate (%) Lindemia pyxidaria (Lindernia pyxidaria [6]) [%]	Weed suppression rate (%) Scirpus juncoides (Scirpus juncoides [7]) [%]	Weed suppression rate (%) Monochoria vaginalis (Monochoria vaginalis [8]) [%]
CC(C)N(C(=O)n1cnn(S(C)(=O)=O)c1=O)c1ccccc1F [Compound 11-2]	90	90	90	80	90	80	90	80
CC(C)N(C(=O)n1cnn(S(C)(=O)=O)c1=O)c1cccc(F)c1 [Compound 11-3]	90	80	90	80	90	80	90	80
CC(C)N(C(=O)n1cnn(S(C)(=O)=O)c1=O)c1ccc(F)c(F)c1F [Compound 11-15]	70	60	100	60	90	70	60	60
CC(C)N(C(=O)n1cnn(S(C)(=O)=O)c1=O)c1ccc(Cl)cc1F [Compound 11-20]	70	40	60	60	70	40	80	40
CC(C)N(C(=O)n1cnn(S(=O)(=O)C(C)C)c1=O)c1cccc(F)c1 [Compound 11-50]	90	80	90	80	90	80	90	80
CC(C)N(C(=O)n1cnn(S(=O)(=O)C(C)C)c1=O)c1ccc(Br)cc1Cl [Compound 11-70]	100	70	100	90	100	100	100	90
Cc1cc(N(C(=O)n2cnn(S(=O)(=O)C(C)C)c2=O)C(C)C)no1 [Compound 11-91]	90	80	90	80	90	80	90	80
CN(C(=O)n1cnn(S(=O)(=O)C2CC2)c1=O)c1ccc(F)cc1F [Compound 11-140]	100	70	100	70	90	70	80	70
CC(C)N(C(=O)n1cnn(S(=O)(=O)C2CC2)c1=O)c1cccc(F)c1 [Compound 11-161]	90	80	90	80	100	100	90	70
CC(C)N(C(=O)n1cnn(S(=O)(=O)C2CC2)c1=O)c1c(F)c(F)cc(F)c1F [Compound 11-197]	100	80	90	100	100	100	100	70
CC(C)N(C(=O)n1cnn(S(=O)(=O)C2CC2)c1=O)c1ccc(Cl)cc1Br [Compound 11-210]	90	80	90	80	90	90	90	80
CC(C)N(C(=O)n1cnn(S(=O)(=O)C2CC2)c1=O)c1ccc(C(F)(F)F)cc1Cl [Compound 11-220]	90	90	80	90	100	90	90	60
Cc1nn(S(=O)(=O)C2CC2)c(=O)n1C(=O)N(c1ccc(F)cc1F)C(C)C [Compound 11-246]	90	80	90	80	90	80	90	80
CC(C)N(C(=O)n1cnn(S(=O)(=O)C2CCCCC2)c1=O)c1ccc(Br)cc1Cl [Compound 11-305]	100	90	100	100	100	100	90	100
Cc1cc(F)ccc1N(C(=O)n1cnn(S(=O)(=O)C2CCCCC2)c1=O)C(C)C [Compound 11-307]	90	70	60	60	80	70	80	70
Cc1ccc(S(=O)(=O)n2ncn(C(=O)N(c3ccc(Br)cc3Cl)C(C)C)c2=O)cc1 [Compound 11-648]	60	60	90	70	–	–	–	–
CC(C)N(C(=O)n1cnn(S(=O)(=O)N(C)C)c1=O)c1c(F)c(F)cc(F)c1F [Compound 11-1069]	90	70	60	70	–	–	–	–
CN(C(=O)n1cnn(S(=O)(=O)c2ccc(Cl)cc2)c1=O)c1ccc(F)cc1F [Compound 11-1134]	80	70	100	70	–	–	–	–
CN(C(=O)n1cnn(S(=O)(=O)c2ccc(C(C)(C)C)cc2)c1=O)c1ccc(F)cc1F [Compound 11-1141]	90	70	60	80	–	–	–	–
